Among the data in paper PMC9500300, “Development of a novel Bruton’s tyrosine kinase inhibitor that exerts anti-cancer activities potentiates response of chemotherapeutic agents in multiple myeloma stem cell-like cells” (Frontiers in Pharmacology, 2022) are inhibition values, retold here.

The structures appear in SMILES notation. Where a name gives a salt, the structure may show the parent alone.

The assay addresses Bruton's tyrosine kinase (BTK) (Homo sapiens, UniProt Q06187). Kind of assay: ADP-Glo in vitro kinase assay with BTK enzyme (Promega). The assay is classed as biochemical. A general note: ADP-Glo first removes unused ATP, then detects ADP through luciferase.

Sequence of Bruton's tyrosine kinase (BTK) (Q06187 2-659): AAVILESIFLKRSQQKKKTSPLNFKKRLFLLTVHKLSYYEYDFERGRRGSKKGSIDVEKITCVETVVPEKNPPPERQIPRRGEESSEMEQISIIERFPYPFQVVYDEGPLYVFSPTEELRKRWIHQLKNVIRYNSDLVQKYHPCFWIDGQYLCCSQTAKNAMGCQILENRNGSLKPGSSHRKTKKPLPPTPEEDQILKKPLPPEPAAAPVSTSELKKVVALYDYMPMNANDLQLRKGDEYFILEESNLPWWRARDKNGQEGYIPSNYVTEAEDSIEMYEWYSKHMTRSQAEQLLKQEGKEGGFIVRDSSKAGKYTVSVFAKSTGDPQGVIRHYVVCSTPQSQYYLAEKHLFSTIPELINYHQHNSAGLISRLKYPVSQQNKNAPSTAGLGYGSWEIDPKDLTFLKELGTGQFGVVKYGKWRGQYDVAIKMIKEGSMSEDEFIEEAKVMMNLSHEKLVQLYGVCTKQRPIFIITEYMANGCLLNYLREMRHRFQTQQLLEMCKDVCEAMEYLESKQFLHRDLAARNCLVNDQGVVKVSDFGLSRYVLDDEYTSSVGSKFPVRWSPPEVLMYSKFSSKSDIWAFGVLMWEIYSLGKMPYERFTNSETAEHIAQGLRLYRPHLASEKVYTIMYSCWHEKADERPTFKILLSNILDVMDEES

For the compound `N=C(N)SCc1ccc(CN2C(=O)C(=Cc3ccc(Oc4cccc(Cl)c4Cl)cc3)c3cc([N+](=O)[O-])ccc32)cc1` [compound 6, 4-((3-(4-(2,3-dichlorophenoxy)benzylidene)-5-nitro-2-oxoindolin-1-yl)methyl) benzyl carbamimidothioate hydrobromide], the inhibition at 1 µM is 49.8%.

One may read the inhibition as the drop in the measured response relative to a control, in per cent. High values mean a strong effect, low ones a weak effect.
